{
  "source": "patent US5108896A",
  "about": "“Simultaneous immunoassay of two analytes using dual enzyme labelled antibodies” (priority 1986, dated 1992)",
  "target": "β-galactosidase (Escherichia coli, UniProt P00722)",
  "sequence (P00722 2-1024)": "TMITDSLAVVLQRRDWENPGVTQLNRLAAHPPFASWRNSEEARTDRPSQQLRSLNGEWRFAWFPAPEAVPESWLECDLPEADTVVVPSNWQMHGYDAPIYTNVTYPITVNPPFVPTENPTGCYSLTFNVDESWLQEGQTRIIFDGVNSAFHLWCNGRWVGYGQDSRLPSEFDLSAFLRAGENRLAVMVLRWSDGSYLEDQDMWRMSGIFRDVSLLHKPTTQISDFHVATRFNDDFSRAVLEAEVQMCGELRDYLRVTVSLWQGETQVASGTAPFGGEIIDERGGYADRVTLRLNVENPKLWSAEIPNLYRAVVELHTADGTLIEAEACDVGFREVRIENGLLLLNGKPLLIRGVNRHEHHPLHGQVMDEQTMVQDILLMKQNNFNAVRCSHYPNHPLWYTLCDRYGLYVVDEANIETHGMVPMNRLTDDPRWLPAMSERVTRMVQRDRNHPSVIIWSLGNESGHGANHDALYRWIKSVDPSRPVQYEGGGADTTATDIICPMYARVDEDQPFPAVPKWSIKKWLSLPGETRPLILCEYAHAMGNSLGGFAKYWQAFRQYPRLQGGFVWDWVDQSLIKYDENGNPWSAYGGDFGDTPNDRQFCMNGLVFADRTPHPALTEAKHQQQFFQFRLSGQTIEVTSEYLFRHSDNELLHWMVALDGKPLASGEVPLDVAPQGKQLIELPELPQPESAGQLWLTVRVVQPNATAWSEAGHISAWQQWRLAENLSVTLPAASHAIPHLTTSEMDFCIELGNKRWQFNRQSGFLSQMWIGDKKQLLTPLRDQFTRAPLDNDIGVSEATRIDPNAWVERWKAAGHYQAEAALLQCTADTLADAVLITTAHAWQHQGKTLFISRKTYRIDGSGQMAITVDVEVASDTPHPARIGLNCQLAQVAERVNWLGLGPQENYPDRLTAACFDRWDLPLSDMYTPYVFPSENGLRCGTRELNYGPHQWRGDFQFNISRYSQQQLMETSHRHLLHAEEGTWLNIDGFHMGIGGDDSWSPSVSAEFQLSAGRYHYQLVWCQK",
  "assay": "Kinetics of β-galactosidase with p-NPBG, with and without diethanolamine",
  "format": "biochemical",
  "details": "for Km: read-out: Michaelis constant (Km) of β-galactosidase for p-NPBG",
  "method": "β-galactosidase has a pH optimum of 7.4 for p-nitrophenyl-β-D-galactoside (p-NPBG), although in a single assay format using normal substrate concentrations (up to approximately 5 mM), the pH can be raised to 8.6 with only a slight loss (approximately 20%) of activity. […] We have also found, however, that by increasing the concentration of p-NPBG at pH 8.6, even in the presence of about 1M diethanolamine, substantial activity of β-galactosidase can be achieved. Substantial activity of β-galactosidase is also obtained if the same reaction medium is used but with p-NPBG replaced by o-NPBG.",
  "note": "Like-named read-outs stand apart in the source and are kept apart here.",
  "data": [
    {"smiles": "OCCNCCO", "note": "[diethanolamine]", "values": [
      {"measurement": "activity of β-galactosidase (inhibition by diethanolamine)", "setting": "about 1M diethanolamine, pH 8.6, p-NPBG at normal substrate concentrations (up to approximately 5 mM)", "result": "almost totally abolished"}
    ]},
    {"smiles": "O=[N+]([O-])c1ccc(O[C@@H]2O[C@H](CO)[C@H](O)[C@H](O)[C@H]2O)cc1", "note": "[p-NPBG, p-nitrophenyl-β-D-galactoside]", "values": [
      {"measurement": "Km", "setting": "in the presence of 1M diethanolamine (competitive inhibition)", "result": 21, "unit": "mM"},
      {"measurement": "Km", "setting": "without diethanolamine", "result": 0.066, "unit": "mM"}
    ]}
  ]
}
